Measurements published in ChEMBL document CHEMBL3045439, “Isoforms of the heteropteran Nezara viridula ecdysone receptor: protein characterisation, RH5992 insecticide binding and homology modelling” (Pest Manag Sci, 2011).

What was measured:
Assay type in all cases: protein-complex assay
Ecdysone receptor [1] = biological target: T1, Ecdysone receptor (Chilo suppressalis, UniProt Q8I1M8+Q8MYA6); assay: Binding affinity to Chilo suppressalis (rice stem borer) EcR
T1 sequence (Q8MYA6 whole entry): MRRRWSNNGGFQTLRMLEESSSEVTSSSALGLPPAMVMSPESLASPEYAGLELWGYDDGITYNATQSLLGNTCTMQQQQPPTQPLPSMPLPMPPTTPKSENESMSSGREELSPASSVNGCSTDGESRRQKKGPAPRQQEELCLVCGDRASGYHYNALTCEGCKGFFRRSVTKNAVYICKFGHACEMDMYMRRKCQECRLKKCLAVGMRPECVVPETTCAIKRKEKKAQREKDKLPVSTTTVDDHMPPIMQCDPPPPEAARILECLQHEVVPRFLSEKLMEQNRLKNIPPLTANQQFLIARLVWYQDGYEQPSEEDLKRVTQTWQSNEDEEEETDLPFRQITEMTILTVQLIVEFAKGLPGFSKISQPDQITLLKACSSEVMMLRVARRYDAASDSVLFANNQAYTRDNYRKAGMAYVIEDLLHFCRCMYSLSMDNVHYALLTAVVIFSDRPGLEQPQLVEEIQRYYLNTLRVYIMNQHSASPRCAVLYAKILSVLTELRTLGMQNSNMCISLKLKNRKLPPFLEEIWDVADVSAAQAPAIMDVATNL
T1 sequence (Q8I1M8 whole entry): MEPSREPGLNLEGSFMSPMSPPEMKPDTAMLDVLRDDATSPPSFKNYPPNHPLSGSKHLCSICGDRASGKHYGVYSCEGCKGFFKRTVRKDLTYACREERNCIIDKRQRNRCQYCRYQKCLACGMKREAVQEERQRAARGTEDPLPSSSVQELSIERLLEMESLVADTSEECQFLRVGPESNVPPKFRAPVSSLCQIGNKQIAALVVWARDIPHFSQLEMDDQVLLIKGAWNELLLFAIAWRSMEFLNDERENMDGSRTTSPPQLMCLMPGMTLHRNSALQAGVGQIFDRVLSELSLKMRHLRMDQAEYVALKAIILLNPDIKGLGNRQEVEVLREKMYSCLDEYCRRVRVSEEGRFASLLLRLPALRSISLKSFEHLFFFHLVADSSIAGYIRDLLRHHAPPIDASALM

Ecdysone receptor [2] = biological target: T2, Ecdysone receptor (Myzus persicae, UniProt A3EZJ9+A3EZK0); assay: Binding affinity to Myzus persicae EcR (green peach aphid)
T2 sequence (A3EZJ9 whole entry): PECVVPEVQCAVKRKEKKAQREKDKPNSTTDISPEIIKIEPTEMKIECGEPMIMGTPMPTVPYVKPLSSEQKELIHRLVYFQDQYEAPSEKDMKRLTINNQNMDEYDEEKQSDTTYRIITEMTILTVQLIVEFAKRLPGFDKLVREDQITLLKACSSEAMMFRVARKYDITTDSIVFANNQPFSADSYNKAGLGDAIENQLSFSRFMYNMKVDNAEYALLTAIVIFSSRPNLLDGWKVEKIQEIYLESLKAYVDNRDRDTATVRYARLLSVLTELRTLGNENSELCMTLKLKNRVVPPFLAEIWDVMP
T2 sequence (A3EZK0 whole entry): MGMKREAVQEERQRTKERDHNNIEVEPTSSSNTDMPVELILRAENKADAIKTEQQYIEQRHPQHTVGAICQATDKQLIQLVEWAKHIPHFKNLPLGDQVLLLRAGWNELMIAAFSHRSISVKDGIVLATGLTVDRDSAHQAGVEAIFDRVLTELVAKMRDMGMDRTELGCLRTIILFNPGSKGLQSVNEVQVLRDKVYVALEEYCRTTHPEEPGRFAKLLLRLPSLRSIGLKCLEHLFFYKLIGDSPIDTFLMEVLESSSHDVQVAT

Ecdysone receptor [3] = biological target: T3, Ecdysone receptor (Locusta migratoria, UniProt O97095+Q6V7U7); assay: Binding affinity to Locusta migratoria ecdysone receptor (EcR)
T3 sequence (O97095 whole entry): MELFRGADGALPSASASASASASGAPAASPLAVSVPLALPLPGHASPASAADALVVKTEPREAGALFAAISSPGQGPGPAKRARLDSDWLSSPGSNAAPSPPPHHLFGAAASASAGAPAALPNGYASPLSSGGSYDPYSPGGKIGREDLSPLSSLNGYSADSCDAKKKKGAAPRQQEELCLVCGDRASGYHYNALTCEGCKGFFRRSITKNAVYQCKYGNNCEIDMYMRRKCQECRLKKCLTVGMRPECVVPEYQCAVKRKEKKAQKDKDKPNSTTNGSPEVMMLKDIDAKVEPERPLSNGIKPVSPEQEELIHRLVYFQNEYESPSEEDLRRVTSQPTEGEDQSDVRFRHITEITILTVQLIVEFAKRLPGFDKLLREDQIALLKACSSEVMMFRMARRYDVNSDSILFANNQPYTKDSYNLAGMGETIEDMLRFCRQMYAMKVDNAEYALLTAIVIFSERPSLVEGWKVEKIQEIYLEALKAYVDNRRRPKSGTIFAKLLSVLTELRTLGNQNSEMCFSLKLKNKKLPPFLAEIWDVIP
T3 sequence (Q6V7U7 whole entry): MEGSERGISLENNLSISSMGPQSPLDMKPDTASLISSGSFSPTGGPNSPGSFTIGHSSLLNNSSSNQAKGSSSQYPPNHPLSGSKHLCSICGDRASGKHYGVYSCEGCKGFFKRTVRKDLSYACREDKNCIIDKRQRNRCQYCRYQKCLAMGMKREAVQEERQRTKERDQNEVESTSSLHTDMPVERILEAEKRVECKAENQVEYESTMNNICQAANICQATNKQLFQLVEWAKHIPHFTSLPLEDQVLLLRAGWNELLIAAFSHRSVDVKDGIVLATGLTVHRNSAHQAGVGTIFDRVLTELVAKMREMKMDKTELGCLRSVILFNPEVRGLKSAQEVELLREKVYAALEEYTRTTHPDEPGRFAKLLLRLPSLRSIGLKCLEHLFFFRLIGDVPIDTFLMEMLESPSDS

`CCc1ccc(C(=O)NN(C(=O)c2cc(C)cc(C)c2)C(C)(C)C)cc1` [TEBUFENOZIDE] was tested, and the Ki (Ecdysone receptor [1]) was 0.00126 µM, the Ki (Ecdysone receptor [2]) was > 126 µM and the Ki (Ecdysone receptor [3]) was 100 µM.
